Results as given in US7420056B2, “Substituted bicyclic imidazo-3-ylamine compounds” (Gruenenthal GmbH, priority 2004, dated 2008).

Biological target: mGluR5 receptor (Sus scrofa, UniProt I3LUI7)
Test: Affinity for the mGluR5 receptor: inhibition of 3[H]-MPEP binding in pig brain homogenate
Settings: 10 μM compound, 5 nM 3[H]-MPEP, read-out: mGluR5 receptor inhibition of ^3[H]-MPEP binding [10 μM] in % at a concentration of the example compounds of 10 μM
Summary of the method: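 Test compounds were screened at 10 μM for displacement of 5 nM [3H]-MPEP from pig brain homogenate (450 μg protein, pH 8.0 Hepes buffer) over 60 min at room temperature. After filtration, scintillation counting gave the read-out. 10 μM unlabelled MPEP set nonspecific binding.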

Sequence of mGluR5 receptor (I3LUI7 19-1212): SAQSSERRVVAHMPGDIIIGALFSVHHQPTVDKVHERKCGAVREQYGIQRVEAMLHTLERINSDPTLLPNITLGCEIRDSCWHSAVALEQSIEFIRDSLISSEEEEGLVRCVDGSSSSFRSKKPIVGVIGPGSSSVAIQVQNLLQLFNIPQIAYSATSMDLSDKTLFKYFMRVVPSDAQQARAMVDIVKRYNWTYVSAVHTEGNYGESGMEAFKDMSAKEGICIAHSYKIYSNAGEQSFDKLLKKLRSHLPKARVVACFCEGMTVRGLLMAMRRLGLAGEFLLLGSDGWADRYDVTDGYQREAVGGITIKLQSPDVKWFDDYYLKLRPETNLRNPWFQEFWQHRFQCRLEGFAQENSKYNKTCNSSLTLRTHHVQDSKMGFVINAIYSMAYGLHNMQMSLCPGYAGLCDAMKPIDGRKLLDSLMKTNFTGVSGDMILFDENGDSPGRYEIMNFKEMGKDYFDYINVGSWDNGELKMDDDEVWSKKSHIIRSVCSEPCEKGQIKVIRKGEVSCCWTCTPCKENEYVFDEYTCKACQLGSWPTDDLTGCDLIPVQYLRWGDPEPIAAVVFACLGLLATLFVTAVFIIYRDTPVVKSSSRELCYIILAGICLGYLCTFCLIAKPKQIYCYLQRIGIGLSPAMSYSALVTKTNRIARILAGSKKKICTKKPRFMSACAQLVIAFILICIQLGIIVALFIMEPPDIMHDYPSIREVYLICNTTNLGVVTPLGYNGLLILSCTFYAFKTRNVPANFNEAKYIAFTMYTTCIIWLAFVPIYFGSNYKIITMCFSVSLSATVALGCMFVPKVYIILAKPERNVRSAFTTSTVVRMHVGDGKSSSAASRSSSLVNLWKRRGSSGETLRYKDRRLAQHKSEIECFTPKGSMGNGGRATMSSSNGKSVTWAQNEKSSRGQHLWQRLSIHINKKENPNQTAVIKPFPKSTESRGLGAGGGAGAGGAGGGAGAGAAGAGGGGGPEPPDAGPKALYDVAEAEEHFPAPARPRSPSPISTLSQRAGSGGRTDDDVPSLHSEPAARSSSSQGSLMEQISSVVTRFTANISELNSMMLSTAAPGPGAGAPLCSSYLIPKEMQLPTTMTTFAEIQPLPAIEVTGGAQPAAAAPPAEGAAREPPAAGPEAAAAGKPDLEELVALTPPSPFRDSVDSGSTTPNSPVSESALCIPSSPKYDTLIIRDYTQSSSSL

Row | inhibition at 10 µM | Compound
1 | 92% | C(#Cc1ccccn1)c1cccc(-c2nc3cnccn3c2NC2CCCCC2)c1 [Example 238, N-cyclohexyl-2-(3-(pyridin-2-ylethynyl)phenyl)imidazo[1,2-a]pyrazin-3-amine]
2 | 60% | CC(C)(C)CC(C)(C)Nc1c(-c2cccc(C#Cc3ccccn3)c2)nc2cnccn12 [Example 239, 2-(3-(pyridin-2-ylethynyl)phenyl)-N-(2,4,4-trimethylpentan-2-yl)imidazo[1,2-a]pyrazin-3-amine]
3 | 65% | CC(C)(C)CC(C)(C)Nc1c(-c2ccc(C#Cc3ccccn3)cc2)nc2c(Cl)cc(C(F)(F)F)cn12 [Example 241, 8-chloro-2-(4-(pyridin-2-ylethynyl)phenyl)-6-(trifluoromethyl)-N-(2,4,4-trimethylpentan-2-yl)imidazo[1,2-a]pyridin-3-amine]
4 | 68% | CC(C)(C)CC(C)(C)Nc1c(-c2ccc(C#Cc3ccccn3)o2)nc2cnccn12 [Example 248, 2-(5-(pyridin-2-ylethynyl)furan-2-yl)-N-(2,4,4-trimethylpentan-2-yl)imidazo[1,2-a]pyrazin-3-amine]
5 | 80% | Cc1cccc(C#Cc2cccc(-c3nc4cnccn4c3NC3CCCC3)c2)n1 [Example 249, N-cyclopentyl-2-(3-((6-methylpyridin-2-yl)ethynyl)phenyl)imidazo[1,2-a]pyrazin-3-amine]
6 | 80% | Cc1cccc(C#Cc2cccc(-c3nc4cnccn4c3NC3CCCCC3)c2)n1 [Example 251, N-cyclohexyl-2-(3-((6-methylpyridin-2-yl)ethynyl)phenyl)imidazo[1,2-a]pyrazin-3-amine]
7 | 86% | Cc1cccc(C#Cc2cccc(-c3nc4cnccn4c3Nc3ccc(F)cc3)c2)n1 [Example 252, N-(4-fluorophenyl)-2-(3-((6-methylpyridin-2-yl)ethynyl)phenyl)imidazo[1,2-a]pyrazin-3-amine]
8 | 73% | CC(C)(C)CC(C)(C)Nc1c(-c2ccc(C#Cc3ccccn3)s2)nc2ncccn12 [Example 253, 2-(5-(pyridin-2-ylethynyl)thiophen-2-yl)-N-(2,4,4-trimethylpentan-2-yl)imidazo[1,2-a]pyrimidin-3-amine]
9 | 77% | C(#Cc1ccccn1)c1cccc(-c2nc3ncccn3c2NC2CCCCC2)c1 [Example 254, N-cyclohexyl-2-(3-(pyridin-2-ylethynyl)phenyl)imidazo[1,2-a]pyrimidin-3-amine]
10 | 81% | CC(C)(C)CC(C)(C)Nc1c(-c2cccc(C#Cc3ccccn3)c2)nc2ncccn12 [Example 255, 2-(3-(pyridin-2-ylethynyl)phenyl)-N-(2,4,4-trimethylpentan-2-yl)imidazo[1,2-a]pyrimidin-3-amine]
11 | 43% | CC(C)(C)CC(C)(C)Nc1c(-c2ccc(C#Cc3ccccc3)nc2)nc2ncccn12 [Example 256, 2-(6-(phenylethynyl)pyridin-3-yl)-N-(2,4,4-trimethylpentan-2-yl)imidazo[1,2-a]pyrimidin-3-amine]
12 | 86% | CC(C)(C)Nc1c(-c2ccc(C#Cc3ccccn3)o2)nc2ncccn12 [Example 258, N-tert-butyl-2-(5-(pyridin-2-ylethynyl)furan-2-yl)imidazo[1,2-a]pyrimidin-3-amine]
13 | 82% | Cc1cccc(C#Cc2cccc(-c3nc4ncccn4c3NC3CCCC3)c2)n1 [Example 259, N-cyclopentyl-2-(3-((6-methylpyridin-2-yl)ethynyl)phenyl)imidazo[1,2-a]pyrimidin-3-amine]
14 | 64% | C(#Cc1ccccn1)c1cccc(-c2nc3ccccn3c2NC2CCCC2)c1 [Example 260, N-cyclopentyl-2-(3-(pyridin-2-ylethynyl)phenyl)imidazo[1,2-a]pyridin-3-amine]
15 | 79% | CC(C)(C)Nc1c(-c2cccc(C#Cc3ccccn3)c2)nc2ccccn12 [Example 261, N-tert-butyl-2-(3-(pyridin-2-ylethynyl)phenyl)imidazo[1,2-a]pyridin-3-amine]
16 | 72% | CC(C)(C)CC(C)(C)Nc1c(-c2cccc(C#Cc3ccccn3)c2)nc2ccccn12 [Example 262, 2-(3-(pyridin-2-ylethynyl)phenyl)-N-(2,4,4-trimethylpentan-2-yl)imidazo[1,2-a]pyridin-3-amine]
17 | 85% | Fc1ccc(Nc2c(-c3cccc(C#Cc4ccccn4)c3)nc3ccccn23)cc1 [Example 263, N-(4-fluorophenyl)-2-(3-(pyridin-2-ylethynyl)phenyl)imidazo[1,2-a]pyridin-3-amine]
18 | 83% | CC(C)(C)Nc1c(-c2ccc(C#Cc3ccccn3)cc2)nc2ccccn12 [Example 264, N-tert-butyl-2-(4-(pyridin-2-ylethynyl)phenyl)imidazo[1,2-a]pyridin-3-amine]
19 | 75% | Cc1ccc2nc(-c3ccc(C#Cc4ccccn4)s3)c(NC(C)(C)C)n2c1 [Example 268, N-tert-butyl-6-methyl-2-(5-(pyridin-2-ylethynyl)thiophen-2-yl)imidazo[1,2-a]pyridin-3-amine]

The next lines start with the molecule.

Row | Compound | inhibition at 10 µM
20 | CCCc1cccc2nc(-c3cc(C#Cc4ccccc4)cs3)c(NCCc3cccc(OC)c3)n12 [Example 233, N-(3-methoxyphenethyl)-2-(4-(phenylethynyl)thiophen-2-yl)-5-propylimidazo[1,2-a]pyridin-3-amine] | 75%
21 | Cc1cc(Br)cn2c(NCCc3cccs3)c(-c3cc(C#Cc4ccccc4)cs3)nc12 [Example 234, 6-bromo-8-methyl-2-(4-(phenylethynyl)thiophen-2-yl)-N-(2-(thiophen-2-yl)ethyl)imidazo[1,2-a]pyridin-3-amine] | 64%
22 | C(#Cc1csc(-c2nc3cc(-c4ccccc4)ccn3c2NCCc2cccs2)c1)c1ccccc1 [Example 235, 7-phenyl-2-(4-(phenylethynyl)thiophen-2-yl)-N-(2-(thiophen-2-yl)ethyl)imidazo[1,2-a]pyridin-3-amine] | 32%
23 | CCCC(C)(C)Nc1c(-c2ccc(C#Cc3ccccc3)s2)nc2c(Br)cc(Br)cn12 [Example 236, 6,8-dibromo-N-(2-methylpentan-2-yl)-2-(5-(phenylethynyl)thiophen-2-yl)imidazo[1,2-a]pyridin-3-amine] | 66%
24 | Cc1cccc(C)c1Nc1c(-c2cc(C#Cc3ccccc3)cs2)nc2c(C)cc(Br)cn12 [Example 237, 6-bromo-N-(2,6-dimethylphenyl)-8-methyl-2-(4-(phenylethynyl)thiophen-2-yl)imidazo[1,2-a]pyridin-3-amine] | 36%
25 | C(#Cc1ccccn1)c1ccc(-c2nc3cnccn3c2NC2CCCC2)cc1 [Example 240, N-cyclopentyl-2-(4-(pyridin-2-ylethynyl)phenyl)imidazo[1,2-a]pyrazin-3-amine] | 95%
26 | Fc1ccc(Nc2c(-c3ccc(C#Cc4ccccn4)cc3)nc3cnccn23)cc1 [Example 242, N-(4-fluorophenyl)-2-(4-(pyridin-2-ylethynyl)phenyl)imidazo[1,2-a]pyrazin-3-amine] | 91%
27 | Cc1nc(C#Cc2ccccc2)ccc1-c1nc2cnccn2c1NC1CCCC1 [Example 243, N-cyclopentyl-2-(2-methyl-6-(phenylethynyl)pyridin-3-yl)imidazo[1,2-a]pyrazin-3-amine] | 80%
28 | Cc1nc(C#Cc2ccccc2)ccc1-c1nc2cnccn2c1NC1CCCCC1 [Example 244, N-cyclohexyl-2-(2-methyl-6-(phenylethynyl)pyridin-3-yl)imidazo[1,2-a]pyrazin-3-amine] | 54%
29 | C(#Cc1ccc(-c2nc3cnccn3c2NC2CCCC2)o1)c1ccccn1 [Example 245, N-cyclopentyl-2-(5-(pyridin-2-ylethynyl)furan-2-yl)imidazo[1,2-a]pyrazin-3-amine] | 92%
30 | Cc1cc(Br)c2nc(-c3ccc(C#Cc4ccccn4)o3)c(NC3CCCC3)n2c1 [Example 246, 8-bromo-N-cyclopentyl-6-methyl-2-(5-(pyridin-2-ylethynyl)furan-2-yl)imidazo[1,2-a]pyridin-3-amine] | 74%
31 | C(#Cc1ccc(-c2nc3cnccn3c2NC2CCCCC2)o1)c1ccccn1 [Example 247, N-cyclohexyl-2-(5-(pyridin-2-ylethynyl)furan-2-yl)imidazo[1,2-a]pyrazin-3-amine] | 83%
32 | Cc1cc(Br)c2nc(-c3ccc(C#Cc4ccccn4)cc3)c(NC3CCCC3)n2c1 [Example 250, 8-bromo-N-cyclopentyl-6-methyl-2-(4-(pyridin-2-ylethynyl)phenyl)imidazo[1,2-a]pyridin-3-amine] | 69%
33 | C(#Cc1ccc(-c2nc3ncccn3c2NC2CCCC2)o1)c1ccccn1 [Example 257, N-cyclopentyl-2-(5-(pyridin-2-ylethynyl)furan-2-yl)imidazo[1,2-a]pyrimidin-3-amine] | 77%
34 | Cc1nc(C#Cc2ccccc2)ccc1-c1nc2ccccn2c1NC1CCCC1 [Example 265, N-cyclopentyl-2-(2-methyl-6-(phenylethynyl)pyridin-3-yl)imidazo[1,2-a]pyridin-3-amine] | 68%
35 | Cc1nc(C#Cc2ccccc2)ccc1-c1nc2ccccn2c1Nc1ccc(F)cc1 [Example 266, N-(4-fluorophenyl)-2-(2-methyl-6-(phenylethynyl)pyridin-3-yl)imidazo[1,2-a]pyridin-3-amine] | 63%
36 | Cc1ccc2nc(-c3ccc(C#Cc4ccccn4)s3)c(NC3CCCC3)n2c1 [Example 267, N-cyclopentyl-6-methyl-2-(5-(pyridin-2-ylethynyl)thiophen-2-yl)imidazo[1,2-a]pyridin-3-amine] | 85%
37 | Cc1ccc2nc(-c3ccc(C#Cc4ccccn4)s3)c(NC3CCCCC3)n2c1 [Example 269, N-cyclohexyl-6-methyl-2-(5-(pyridin-2-ylethynyl)thiophen-2-yl)imidazo[1,2-a]pyridin-3-amine] | 94%
